# From US20250066363A1, “Bicyclic DGK Inhibitors” (Incyte Corporation, priority 2023, published 2025)
# Key:
# DGKζ = DGKζ (Homo sapiens (Human), UniProt Q13574); experiment: In vitro DGKζ inhibition assay (ADP-Glo); assay type: biochemical; settings: second column of Table A, head printed DGKα, presumably DGKζ; His-tagged human recombinant DGKζ 0.4 nM, 30 μM ATP, 20 μM DLG
# DGKα = DGKα (Homo sapiens (Human), UniProt P23743); experiment: In vitro DGKα inhibition assay (ADP-Glo); assay type: biochemical; settings: first column of Table A; His-tagged human recombinant DGKα 0.1 nM, 50 μM ATP, 20 μM DLG
# Chain of DGKα (P23743 whole entry): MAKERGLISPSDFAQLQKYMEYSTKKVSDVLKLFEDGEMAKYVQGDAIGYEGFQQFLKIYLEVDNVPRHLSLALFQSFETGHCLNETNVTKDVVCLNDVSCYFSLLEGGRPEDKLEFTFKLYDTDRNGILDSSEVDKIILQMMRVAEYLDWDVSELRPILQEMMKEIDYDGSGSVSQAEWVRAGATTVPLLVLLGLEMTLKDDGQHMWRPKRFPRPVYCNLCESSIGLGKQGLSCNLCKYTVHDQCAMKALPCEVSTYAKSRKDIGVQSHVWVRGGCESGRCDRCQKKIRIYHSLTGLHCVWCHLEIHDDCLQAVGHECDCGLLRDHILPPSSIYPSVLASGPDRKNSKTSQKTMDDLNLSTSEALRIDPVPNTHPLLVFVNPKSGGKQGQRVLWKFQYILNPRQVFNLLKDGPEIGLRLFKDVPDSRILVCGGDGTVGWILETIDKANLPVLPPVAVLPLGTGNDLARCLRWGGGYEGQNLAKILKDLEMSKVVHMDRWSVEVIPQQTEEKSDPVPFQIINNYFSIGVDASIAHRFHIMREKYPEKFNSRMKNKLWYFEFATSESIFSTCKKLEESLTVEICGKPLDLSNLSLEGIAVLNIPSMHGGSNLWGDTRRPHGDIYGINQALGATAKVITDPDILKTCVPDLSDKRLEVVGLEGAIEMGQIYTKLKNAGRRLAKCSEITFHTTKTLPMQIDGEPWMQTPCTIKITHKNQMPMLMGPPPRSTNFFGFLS
# Chain of DGKζ (Q13574 whole entry): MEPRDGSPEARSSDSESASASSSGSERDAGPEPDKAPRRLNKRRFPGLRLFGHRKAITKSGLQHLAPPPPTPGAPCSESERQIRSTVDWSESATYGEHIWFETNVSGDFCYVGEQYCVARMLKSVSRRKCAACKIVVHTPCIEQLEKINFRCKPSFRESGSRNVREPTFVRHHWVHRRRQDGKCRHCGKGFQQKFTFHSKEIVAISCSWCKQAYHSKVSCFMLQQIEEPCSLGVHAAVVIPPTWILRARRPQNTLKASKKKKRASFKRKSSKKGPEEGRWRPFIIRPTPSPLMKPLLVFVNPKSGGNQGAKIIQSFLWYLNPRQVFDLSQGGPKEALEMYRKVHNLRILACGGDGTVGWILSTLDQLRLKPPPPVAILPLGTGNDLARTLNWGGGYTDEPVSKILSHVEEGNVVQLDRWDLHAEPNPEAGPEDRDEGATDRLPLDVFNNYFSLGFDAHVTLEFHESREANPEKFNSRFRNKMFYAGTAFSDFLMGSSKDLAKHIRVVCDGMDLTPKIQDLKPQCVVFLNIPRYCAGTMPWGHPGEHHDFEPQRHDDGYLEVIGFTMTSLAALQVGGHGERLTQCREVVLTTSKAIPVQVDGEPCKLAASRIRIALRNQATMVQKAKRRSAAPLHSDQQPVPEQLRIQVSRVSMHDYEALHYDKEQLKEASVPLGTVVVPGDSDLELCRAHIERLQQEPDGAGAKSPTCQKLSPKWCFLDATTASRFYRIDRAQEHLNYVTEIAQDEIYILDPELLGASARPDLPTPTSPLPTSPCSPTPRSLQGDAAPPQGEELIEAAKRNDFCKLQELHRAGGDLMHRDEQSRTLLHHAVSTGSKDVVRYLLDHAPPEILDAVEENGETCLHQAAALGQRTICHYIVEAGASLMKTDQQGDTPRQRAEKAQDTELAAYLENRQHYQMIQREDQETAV
SMILES,IC50 (DGKζ) [nM],IC50 (DGKα) [nM]
"CC[C@@H]1CN(c2nc(=O)n(C)c3c2nc(C)n3C[C@@H]2CCCO2)[C@@H](C)CN1[C@H](c1ccc(C(F)(F)F)cc1)C(C)C [Example 59, 6-((2S,5R)-5-Ethyl-2-methyl-4-((S)-2-methyl-1-(4-(trifluoromethyl)phenyl)propyl)piperazin-1-yl)-3,8-dimethyl-9-(((S)-tetrahydrofuran-2-yl)methyl)-3,9-dihydro-2H-purin-2-one]",≤ 10,≤ 10
"CC[C@@H]1CN(c2nc(=O)n(C)c3c2nc(C)n3C[C@@H]2CCCO2)[C@@H](C)CN1[C@@H](c1ccc(C(F)(F)F)cc1)C(C)C [Example 60, 6-((2S,5R)-5-ethyl-2-methyl-4-((R)-2-methyl-1-(4-(trifluoromethyl)phenyl)propyl)piperazin-1-yl)-3,8-dimethyl-9-(((S)-tetrahydrofuran-2-yl)methyl)-3,9-dihydro-2H-purin-2-one]",≤ 10,≤ 10
"CC[C@@H]1CN(c2nc(=O)n(C)c3c2nc(C)n3C[C@@H]2CCCO2)[C@@H](C)CN1[C@@H](C)c1ccc(C(F)(F)F)cc1 [Example 61, 6-((2S,5R)-5-Ethyl-2-methyl-4-((S)-1-(4-(trifluoromethyl)phenyl)ethyl)piperazin-1-yl)-3,8-dimethyl-9-(((S)-tetrahydrofuran-2-yl)methyl)-3,9-dihydro-2H-purin-2-one]",≤ 10,≤ 10
"CC[C@@H]1CN(c2nc(=O)n(C)c3c2nc(C)n3C[C@@H]2CCCO2)[C@@H](C)CN1[C@H](C)c1ccc(C(F)(F)F)cc1 [Example 62, 6-((2S,5R)-5-ethyl-2-methyl-4-((R)-1-(4-(trifluoromethyl)phenyl)ethyl)piperazin-1-yl)-3,8-dimethyl-9-(((S)-tetrahydrofuran-2-yl)methyl)-3,9-dihydro-2H-purin-2-one]",≤ 10,≤ 10
"CC[C@@H]1CN(c2nc(=O)n(C)c3c2nc(C)n3C[C@H]2OCC[C@@H]2O)[C@@H](C)CN1C(c1ccc(Cl)cc1)C1CC(F)(F)C1 (stereo partly drawn) [Example 65, 6-((2S,5R)-4-((4-Chlorophenyl)(3,3-difluorocyclobutyl)methyl)-5-ethyl-2-methylpiperazin-1-yl)-9-(((2R,3S)-3-hydroxytetrahydrofuran-2-yl)methyl)-3,8-dimethyl-3,9-dihydro-2H-purin-2-one]",≤ 10,≤ 10

# The remaining lines, values ahead:
IC50 (DGKζ) [nM],IC50 (DGKα) [nM],SMILES
≤ 10,≤ 10,"C[C@@H]1CN(c2nc(=O)n(C)c3c2ncn3CC2(O)CCC2)[C@@H](C)CN1C(c1ccc(Cl)cc1)C1CC(F)(F)C1 (stereo partly drawn) [Example 67, 6-((2S,5R)-4-((4-Chlorophenyl)(3,3-difluorocyclobutyl)methyl)-2,5-dimethylpiperazin-1-yl)-9-((1-hydroxycyclobutyl)methyl)-3-methyl-3,9-dihydro-2H-purin-2-one]"
≤ 10,≤ 10,"CC[C@@H]1CN(c2nc(=O)n(C)c3c2nc(C)n3C[C@H]2OCC[C@@H]2O)[C@@H](C)CN1[C@@H](CC)c1ccc(C(F)(F)F)cc1 [Example 69, 6-((2S,5R)-5-Ethyl-2-methyl-4-((S)-1-(4-(trifluoromethyl)phenyl)propyl)piperazin-1-yl)-9-(((2R,3S)-3-hydroxytetrahydrofuran-2-yl)methyl)-3,8-dimethyl-3,9-dihydro-2H-purin-2-one]"
≤ 10,≤ 10,"CC[C@@H]1CN(c2nc(=O)n(C)c3c2nc(C)n3C[C@H]2OCC[C@@H]2O)[C@@H](C)CN1[C@H](CC)c1ccc(C(F)(F)F)cc1 [Example 70, 6-((2S,5R)-5-ethyl-2-methyl-4-((R)-1-(4-(trifluoromethyl)phenyl)propyl)piperazin-1-yl)-9-(((2R,3S)-3-hydroxytetrahydrofuran-2-yl)methyl)-3,8-dimethyl-3,9-dihydro-2H-purin-2-one]"
≤ 10,≤ 10,"CC[C@@H]1CN(c2nc(=O)n(C)c3c2nc(C)n3C[C@H]2OCC[C@H]2O)[C@@H](C)CN1[C@@H](CC)c1ccc(C(F)(F)F)cc1 [Example 71, 6-((2S,5R)-5-Ethyl-2-methyl-4-((S)-1-(4-(trifluoromethyl)phenyl)propyl)piperazin-1-yl)-9-(((2R,3R)-3-hydroxytetrahydrofuran-2-yl)methyl)-3,8-dimethyl-3,9-dihydro-2H-purin-2-one]"
≤ 10,≤ 10,"CC[C@@H]1CN(c2nc(=O)n(C)c3c2nc(C)n3C[C@H]2OCC[C@H]2O)[C@@H](C)CN1[C@H](CC)c1ccc(C(F)(F)F)cc1 [Example 72, 6-((2S,5R)-5-ethyl-2-methyl-4-((R)-1-(4-(trifluoromethyl)phenyl)propyl)piperazin-1-yl)-9-(((2R,3R)-3-hydroxytetrahydrofuran-2-yl)methyl)-3,8-dimethyl-3,9-dihydro-2H-purin-2-one]"
